Activity calls are given as the source filed them. The rule behind the calls is not given here.
How the values were obtained:
Rhodococcus fascians [1] = experiment: Antimicrobial activity against Corynebacterium fascians NCPPB 2551 at 0.0005 molarity/paper disk; assay type: functional, Rhodococcoides fascians
Rhodococcus fascians [2] = experiment: Antimicrobial activity against Corynebacterium fascians NCPPB 2551 at 0.01 molarity/paper disk; assay type: functional, Rhodococcoides fascians
Rhodococcus fascians [3] = experiment: Antimicrobial activity against Corynebacterium fascians NCPPB 2551 at 0.0001 molarity/paper disk; assay type: functional, Rhodococcoides fascians
Rhodococcus fascians [4] = experiment: Antimicrobial activity against Corynebacterium fascians NCPPB 2551 at 0.001 molarity/paper disk; assay type: functional, Rhodococcoides fascians
Pseudomonas syringae [5] = experiment: Antimicrobial activity against Pseudomonas syringae pv. tabaci NCPPB 2730 after 48 to 72 hrs by paper disk method; assay type: functional, organism-based; conditions: Pseudomonas amygdali pv. tabaci
Pseudomonas syringae [6] = experiment: Antimicrobial activity against Pseudomonas syringae pv. tomato NCPPB 2563 after 48 to 72 hrs by paper disk method; assay type: functional, organism-based
Pseudomonas = experiment: Antimicrobial activity against Pseudomonas ITM 311 after 48 to 72 hrs by paper disk method; assay type: functional, organism-based
Pseudomonas savastanoi = experiment: Antimicrobial activity against Pseudomonas savastanoi ITM 519 after 48 to 72 hrs by paper disk method; assay type: functional, organism-based
[7] = tested on: Xanthomonas euvesicatoria; experiment: Antimicrobial activity against Xanthomonas campestris pv. vesicatoria NCPPB 1616 after 48 to 72 hrs by paper disk method; assay type: functional, organism-based
[8] = tested on: Pseudomonas coronafaciens; experiment: Antimicrobial activity against Pseudomonas coronafaciens NCPPB 2481 after 48 to 72 hrs by paper disk method; assay type: functional, organism-based
Pseudomonas syringae [9] = experiment: Antimicrobial activity against Pseudomonas syringae pv. maculicola NCPPB 1777 after 48 to 72 hrs by paper disk method; assay type: functional, organism-based
Priestia megaterium = experiment: Antimicrobial activity against Bacillus megaterium ITM 80 after 48 to 72 hrs by paper disk method; assay type: functional, organism-based
[10] = tested on: Pectobacterium carotovorum; experiment: Antimicrobial activity against Erwinia carotovora subsp. carotovora NCPPB ITM 180 after 48 to 72 hrs by paper disk method; assay type: functional, organism-based
Pseudomonas cichorii = experiment: Antimicrobial activity against Pseudomonas cichorii NCPPB 2379 after 48 to 72 hrs by paper disk method; assay type: functional, organism-based
Pseudomonas syringae [11] = experiment: Antimicrobial activity against Pseudomonas syringae pv. syringae NCPPB ITM24 after 48 to 72 hrs by paper disk method; assay type: functional, organism-based
[12] = tested on: Agrobacterium tumefaciens; experiment: Antimicrobial activity against Agrobacterium tumefaciens ITM 71 after 48 to 72 hrs by paper disk method; assay type: functional, organism-based
[13] = tested on: Curtobacterium flaccumfaciens; experiment: Antimicrobial activity against Corynebacterium flaccumfaciens NCPPB 559 after 48 to 72 hrs by paper disk method; assay type: functional, organism-based

Row | Compound | inhibition zone (IZ) (Rhodococcus fascians [1]) [mm] | inhibition zone (IZ) (Rhodococcus fascians [2]) [mm] | inhibition zone (IZ) (Rhodococcus fascians [3]) [mm] | inhibition zone (IZ) (Rhodococcus fascians [4]) [mm] | Activity (Pseudomonas syringae [5]) | Activity (Pseudomonas syringae [6]) | Activity (Pseudomonas) | Activity (Pseudomonas savastanoi) | Activity [7] | Activity [8] | Activity (Pseudomonas syringae [9]) | Activity (Priestia megaterium) | Activity [10] | Activity (Pseudomonas cichorii) | Activity (Pseudomonas syringae [11]) | Activity [12] | Activity [13]
1 | O=c1c2cc3c(cc2c2cccc4c2n1CC4)OCO3 | 9 | 25 | 0 | 12 |  |  |  |  |  |  |  |  |  |  |  |  | 
2 | [O-]c1cc2c3c(c1)c1cc4c(cc1c[n+]3CC2)OCO4 [UNGEREMINE] | 0 | 15 | 0 | 14 | Active | Active | inactive | Active | Active | Active | Active | Active | Active | Active | Active | Active | Active
3 | O[C@H]1[C@H]2c3cc4c(cc3CN3CCC(=C[C@@H]1O)[C@H]23)OCO4 [LYCORINE] | 0 | 0 | 0 | 0 |  |  |  |  |  |  |  |  |  |  |  |  | 
4 | [Cl-].c1cc2c3c(c1)c1cc4c(cc1c[n+]3CC2)OCO4 [ANHYDROLYCORINIUM CHLORIDE] | 16 | 30 | 10 | 24 | Active | Active | inactive | Active | Active | Active | Active | Active | Active | Active | Active | Active | Active
5 | Oc1ccc2c3c1c1cc4c(cc1c[n+]3CC2)OCO4.[Cl-] | 0 | 10 | 0 | 7 |  |  |  |  |  |  |  |  |  |  |  |  | 
6 | O=C1N[C@@H]2C(=C[C@H](O)[C@@H](O)[C@H]2O)c2cc3c(c(O)c21)OCO3 [NARCICLASINE] | 0 | 0 | 0 | 0 |  |  |  |  |  |  |  |  |  |  |  |  | 
7 | c1cc2c3c(c1)-c1cc4c(cc1CN3CC2)OCO4 [ANHYDROLYCORINE] | 15 | 25 | 0 | 25 |  |  |  |  |  |  |  |  |  |  |  |  | 
8 | Oc1cc2c3c(c1)c1cc4c(cc1c[n+]3CC2)OCO4.[Cl-] | 0 | 0 | 0 | 0 |  |  |  |  |  |  |  |  |  |  |  |  | 
